The subject of data set [1] is PI3K pathway (phosphorylation levels of AKT) in obscurin-knockdown MCF10A cells. The experiment in a line: Western blot of AKT phosphorylation after PI3K inhibitor treatment. In kind it is cell-based. The protocol: (§1) Cell lysates were prepared in radioimmuno-precipitation assay (RIPA) buffer supplemented with cocktails of protease inhibitors (Roche, Mannheim, Germany), and phosphatase inhibitors ([…], 100 mM Sodium Flouride, 115 mM Sodium Molybdate, 100 mM Sodium Orthovanadate, 400 mM Sodium Tartrate Dihydrate, 100 mM β-Glycerophosphate, 100 mM Sodium Pyrophosphate, and 10 mM EGTA). Protein lysates were electrophoresed on SDS-NuPAGE gel (Thermo Fisher Scientific, Waltham, Mass.), transferred to nitrocellulose membranes, and probed with primary antibodies as specified in the text, and the appropriate […] secondary antibodies (Jackson ImmunoResearch Laboratories). Immunoreactive bands were visualized using AMERSHAM ECL prime western blotting detection reagent (GE Healthcare Life Sciences), and densitometry was performed with Image J software. Treatment of cells followed by lysate preparation and immunoblotting analysis was repeated at least three independent times.
(§2) To verify the effectiveness of the two inhibitors in suppressing the PI3K pathway, whether the phosphorylation levels of AKT were reduced following treatment was examined. […] Whether inhibition of PI3K reverses epithelial to mesenchymal transition in obscurin-knockdown cells was evaluated.
(In general: Immunoblotting shows a protein as a band on a membrane.)

For data set [2], the system named is obscurin-knockdown MCF10A cells. The experiment in a line: Western blot of epithelial and mesenchymal (EMT) proteins after PI3K inhibitor treatment. It counts as cell-based. As to the method: as §1, §2
For data set [3] the test system is unchanged. The experiment in a line: Mammosphere culture in ultra-low attachment conditions. It counts as cell-based. Also noted: mammosphere formation: dose or concentration left out as unconfirmed. To be noted: for reduction in mammosphere formation: spheres ≧100 μm. As to the method:
Single MCF10A cells stably transduced with obscurin shRNA were plated in ultralow attachment plates (Corning, Lowell, Mass., USA) at a density of 10,000 cells/mL in 2 mL serum-free growth media (DMEM/F12 with GlutaMAX™), supplemented with insulin (10 μg/mL), hydrocortisone (0.5 μg/mL), cholera toxin (100 ng/mL), epidermal growth factor (20 ng/mL), 1% penicillin-streptomycin and puromycin (1.5 μg/mL). Twenty-four hours following initial plating, cell cultures were supplemented with 2 mL serum-free growth media that contained the indicated concentration of LY294002, BKM120, or DMSO vehicle control every day for 10 days at which time point spheres were measured and those ≧100 μm were counted as tumor spheres.

Data set [4] deals with adherent MCF10A obscurin-knockdown or scramble control cells. The experiment in a line: Cell viability, AlamarBlue assay. It counts as cell-based. The settings on record: different concentrations of BKM120, 24 h. As to the method: (§3) Cell viability of MCF10A obscurin-knockdown and scramble control cells treated with the specified concentrations of LY294002 and BKM120 inhibitors or vehicle DMSO for 24 h was measured using the AlamarBlue assay (Life Technologies) (9). In brief, the AlamarBlue reagent was added to the cell culture at 10% v/v and incubated for 16 h at 37° C., 5% CO2. The percentage (%) of AlamarBlue reduction was determined by measuring absorbance at 550 and 620 nm. Data are presented as the percentage of AlamarBlue reduced per number of cells.
(Resazurin is reduced to fluorescent resorufin, in cell work by metabolically active cells.)

Data set [5] deals with obscurin-knockdown MCF10A cells. The experiment in a line: Wound healing assay. The settings on record: DMSO vehicle ≧20%. It counts as cell-based. The protocol:
Wound healing was measured by growing confluent MCF10A cell monolayers stably expressing obscurin shRNA in six-well tissue culture dishes (Corning). A scrape was made through the monolayer with a sterile plastic pipette tip and fresh media containing LY294002, BKM120, or DMSO vehicle control was added at the indicated concentrations. Images were taken with an inverted microscope (10× objective) at time 0 h and after a 6 h incubation period at 37° C., 5% CO2. Migration was expressed as the average of the difference between the measurement at time zero and 6 h obtained from 3 independent experiments.

Data set [6] shares this test system. The experiment in a line: Microchannel single cell migration. It counts as cell-based. Details: dose or concentration left out as unconfirmed. The protocol:
The microchannel device was fabricated by standard lithography and coated with 20 μg/mL collagen type I (BD Biosciences, San Jose, Calif.) (12-16). Cells were trypsinized, resuspended in serum-containing media to neutralize the trypsin, and subsequently washed in serum-free media. A suspension of 5×10^4 cells was added to the inlet port, and cells were transported along the seeding channel by pressure-driven flow. Within 5 min, the cell suspension was removed and replaced with 100 μL of serum-free media containing the specified concentrations of LY294002, BKM120, or DMSO vehicle control. Serum-containing media with the indicated concentrations of LY294002, BKM120, or DMSO was added to the top-most inlet port, thus forming a chemoattractant gradient. Chambers were placed in an enclosed, humidified microscope stage at 5% CO2 and 37° C. (TIZ, Tokai Hit Co., Japan or Okolab, Italy). […] Instantaneous cell velocity was calculated by dividing each interval displacement by the time interval (20 min), and the mean velocity for a given cell was computed by averaging instantaneous velocities for all time intervals. Chemotactic index was calculated by dividing the end-to-end displacement by the total path length of the cell. […]

Data set [7] has the same test system. The experiment in a line: Matrigel invasion assay. In kind it is cell-based. To be noted: dose-dependent, 16 h. The protocol:
Invasion was measured by adding 250,000 cells suspended in 0.5 mL growth media containing the specified concentration of LY294002, BKM120, or DMSO vehicle control to the upper chamber of a Matrigel-coated invasion chamber (BD Biosciences, San Jose, Calif.). The lower chamber contained growth media supplemented with 10% FBS. The inserts were incubated at 37° C., 5% CO2 for 16 h. At the end of the 16 h incubation period, the cells that had invaded in the lower chamber were fixed and stained with 0.5% crystal violet in 20% methanol. The number of invaded cells was quantified by counting at least 6 random fields from 3 independent experiments under an inverted light microscope (Olympus IX51) with a 10× objective.

Data set [8] deals with MCF10A obscurin-knockdown cells. The experiment in a line: Bright-field microscopy of cell morphology and cell-cell junctions. It counts as cell-based. The settings on record: 1 mM BKM120. The source says:
Taken together, these findings indicate that blockade of the PI3K pathway in obscurin-depleted breast epithelial cells via pharmacological treatment or molecular means effectively reverses epithelial to mesenchymal transition.

Data set [9] can be described thus: Cell viability, AlamarBlue assay. To be noted: human, adherent MCF10A obscurin-knockdown or scramble control cells; 25 µM LY294002, 24 h; read-out: decrease in cell viability (reduction of AlamarBlue). It counts as cell-based. As to the method:
as §3

The target in a further data set is T1, control GST-protein (UniProt P08515 1-218 = GST).
T1 construct: Negative control in the GST pull-down; also called GST-alone
T1 sequence (P08515 whole entry): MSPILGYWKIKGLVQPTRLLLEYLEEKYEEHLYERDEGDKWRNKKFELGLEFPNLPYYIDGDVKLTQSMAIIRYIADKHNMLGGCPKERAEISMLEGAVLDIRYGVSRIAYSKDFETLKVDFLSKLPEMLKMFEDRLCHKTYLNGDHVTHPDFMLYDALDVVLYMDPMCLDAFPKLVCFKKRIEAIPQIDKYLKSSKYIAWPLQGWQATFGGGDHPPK
The experiment in a line: GST pull-down on glutathione-Sepharose beads, immunoblot with His-tag antibody. The protocol: GST-pull down assays were performed (19, 20). Equivalent amounts of control GST-protein and GST-obscurin-PH were bound to glutathione-Sepharose beads and incubated with 3 mg/mL of His-tagged PI3K/p85-SH3 protein overnight at 4° C. in pull-down buffer (50 mM Tris, pH 7.5, 120 mM NaCl, 10 mM NaN3, 2 mM DTT, and 0.5% Tween). At the end of the incubation period, beads were washed five times with wash buffer (PBS with 10 mM NaN3 and 0.1% Tween), and bound proteins were eluted with 2× LDS buffer (Invitrogen), followed by boiling at 95° C. for 10 min and separation on a 4-12% bis-Tris gel. A His6-antibody (sc-803, Santa Cruz Biotechnology) was used for detection of immunoreactive bands with the Tropix chemiluminescence detection kit (Applied Biosystems).

A further data set concerns the target T2, GST-obscurin-PH (human, UniProt Q5VST9 5895-6004).
T2 construct: domain: Pleckstrin Homology (PH) domain; Expressed in bacteria, about 37 kDa; also called GST-obscurin-PH domain; recombinant obscurin-PH domain fused to GST; not shown: glutathione-S-transferase (GST) tag encoded by the PGEX vector (GE Healthcare)
T2 sequence (looked up): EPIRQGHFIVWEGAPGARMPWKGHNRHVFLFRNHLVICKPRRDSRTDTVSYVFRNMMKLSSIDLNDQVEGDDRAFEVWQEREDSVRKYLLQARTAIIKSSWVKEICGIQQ
The experiment in a line: SPR, Biacore 3000; GST-obscurin-PH immobilized on CM5 chip, HIS-PI3K/p85-SH3 as analyte at 8-250 nM; 1:1 Langmuir model. As to the method:
Surface plasmon resonance was performed using a BiaCore 3000 instrument as described (6, 19, 21). In particular, the GST-obscurin-PH domain was used as ligand and was immobilized on a carboxymethyl-dextran sensor (CM5) chip, while the HIS-PI3K-p85/SH3 domain was used as analyte at varying concentrations ranging from 8-250 nM. The flow rate for analyte injection was 20 μl/min. For each analyte concentration, association was measured for 180 sec and dissociation was measured over another 180 sec. Data were evaluated with the 1:1 Langmuir model and the Heterogeneous Ligand model (BIAevaluation Software 3.1, Biacore). The association (kₐ, M⁻¹ s⁻¹) and dissociation (kd, s⁻¹) rate constants as well as the association (KA, M⁻¹) and dissociation (KD, M) equilibrium constants were determined.

Three molecules from patent US20170363632A1, “Biomarker Kit for Metastatic Breast Cancer Prognosis and Uses Thereof” (University of Maryland, Baltimore, priority 2016, published 2017) can be followed below.

Entries after “also recorded” stand apart in the source; their conditions may differ.

`Nc1cc(C(F)(F)F)c(-c2cc(N3CCOCC3)nc(N3CCOCC3)n2)cn1` [BKM120]: in data set [1] (1 μM BKM120), the “phosphorylation level of AKT at serine-473 compared to vehicle DMSO” value was determined as 0.3 fold and the “phosphorylation level of AKT at threonine-308 compared to vehicle DMSO” value was 0.1 fold. Besides, in data set [2] (1 μM BKM120), the “expression level of E-cadherin (increase)” value came to 2.1 fold, the “expression level of N-cadherin (decrease)” value stood at 0.5 fold, the “expression level of Slug (decrease)” value is 0.3 fold and the “expression level of Twist (decrease)” value was 0.5 fold. Also, in data set [2] (1 μM BKM120), the “expression level of β-catenin (increase)” value is on record as 5 fold. The “reduction in mammosphere formation” value in data set [3] (0.1 mM BMK120, 10 days) came to 18%. Besides, in [3] (0.5 mM BMK120, 10 days), the “reduction in mammosphere formation” value came out at 89%. In addition, in data set [3] (BKM120, 10 days), the mammosphere formation result is on record as “completely eliminated mammosphere formation”. Moreover, the “cell viability (reduction of AlamarBlue) versus vehicle DMSO” value in data set [4] is “No significant changes; also recorded: did not affect their survival and growth”. In [5] (1 mM BKM120, after 6 h), this molecule yielded a wound healing of around 6%. In data set [6] (microchannels 6, 10, 20 and 50 mm wide), the “migration speed compared to DMSO treated cells” value is “significantly reduced migration”. Moreover, the “chemotactic index (CI) relative to vehicle control” value in [6] (statistically significant in narrow channels (6 mm)) is “lower chemotactic index”. Also, the “reduction in cell invasiveness relative to DMSO” value in data set [7] (BKM120 0-1 mM) was 15-60%. For the same molecule, the “cell morphology and cell-cell junction formation” value in [8] is “(re)acquired an epithelial appearance and were able to form cell-cell junctions”.

With `O=c1cc(N2CCOCC2)oc2c(-c3ccccc3)cccc12` [LY294002], in data set [1] (25 μM LY294002), the “phosphorylation level of AKT at serine-473 compared to vehicle DMSO” value was 0.4 fold and the “phosphorylation level of AKT at threonine-308 compared to vehicle DMSO” value came out at 0.4 fold. Further, in data set [2] (25 μM LY294002), the “expression level of E-cadherin (increase)” value amounted to 1.8 fold, the “expression level of N-cadherin (decrease)” value amounted to 0.3 fold, the “expression level of Slug (decrease)” value is on record as 0.6 fold and the “expression level of Twist (decrease)” value was 0.4 fold. The “expression level of β-catenin (increase)” value in [2] (25 μM LY294002) worked out at 1.3 fold. For the same molecule, the “reduction in mammosphere formation” value in [3] (5 mM LY294002, 10 days) turned out to be 36%. Also, in data set [3] (10 mM LY294002, 10 days), the “reduction in mammosphere formation” value came to 58%. The cytotoxicity at 24 h, 25 µM in data set [9] was around 5%. The same molecule registered a wound healing in data set [5] (25 mM LY294002, after 6 h) of around 6%. The “reduction in cell invasiveness relative to DMSO” value in data set [7] (LY294002 0-25 mM) was 50-95%.

B1: HIS-PI3K/p85-SH3 (other, human, UniProt O00459 4-80, looked up)
chain: PEGFQYRALYPFRRERPEDLELLPGDVLVVSRAALQALGVAEGGERCPQSVGWMPGLNERTRQRGDFPGTYVEFLGP
notes: domain: Src Homology 3 (SH3) domain; Expressed in bacteria, about 10 kDa; also called His-tagged PI3K/p85-SH3 protein; HIS-PI3K-p85/SH3 domain; not shown: His tag and vector-encoded residues of pET-30a(+)
Usually Kd stands for the equilibrium constant for the complex coming apart. Consider B1, for which, in the data set with control GST-protein, the binding result is listed as “no binding (tested: 3 mg/mL of His-tagged PI3K/p85-SH3)”. This molecule gave a Kd with GST-obscurin-PH of around 50 nM.
